Here are results for 21 compounds from US7989447B2, “1,5 and 3,6-substituted indole compounds having NOS inhibitory activity” (NeurAxon, Inc., priority 2006, dated 2011).

Structures are written as SMILES. pIC50: −log10 of the molar value. Where two headings read alike, the source gives them in different places.

In general, IC50 refers to the midpoint of a concentration-inhibition curve.

The target of assay [1] is human endothelial constitutive NOS (eNOS) (Homo sapiens, UniProt P29474). Briefly: eNOS (Human) enzyme assay, radiometric conversion of [3H]L-arginine to [3H]L-citrulline. In kind it is biochemical. As to conditions: recombinant human enzyme, 37° C., 45 min; for pIC50: read-out: Human eNOS. The procedure:
(§1) Recombinant human inducible NOS (iNOS), human endothelial constitutive NOS (eNOS) or human neuronal constitutive NOS(nNOS) were produced in Baculovirus-infected Sf9 cells (ALEXIS). In a radiometric method, NO synthase activity was determined by measuring the conversion of [^3H]L-arginine to [^3H]L-citrulline. To measure iNOS, 10 μL of enzyme was added to 100 μL of 100 mM HEPES, pH=7,4, containing 1 mM CaCl2, 1 mM EDTA, 1 mM dithiotheitol, 1 μM FMN, 1 μM FAD, 10 μM tetrahydrobiopterin, 120 μM NADPH, and 100 nM CaM. To measure eNOS or nNOS, 10 μL of enzyme was added to 100 μL of 40 mM HEPES, pH=7.4, containing 2.4 mM CaCl2, 1 mM MgCl2, 1 mg/mL BSA, 1 mM EDTA, 1 mM dithiothreitol, 1 μM FMN, 1 μM FAD, 10 μM tetrahydrobiopterin, 1 mM NADPH, and 1.2 μM CaM.
(§2) To measure enzyme inhibition, a 15 μL solution of a test substance was added to the enzyme assay solution, followed by a pre-incubation time of 15 min at RT. The reaction was initiated by addition of 20 μL L-arginine containing 0.25 μCi of [^3H]arginine/mL and 24 μM L-arginine. The total volume of the reaction mixture was 150 μL in every well. The reactions were carried out at 37° C. for 45 min. The reaction was stopped by adding 20 μL of ice-cold buffer containing 100 mM HEPES, 3 mM EGTA, 3 mM EDTA, pH=5.5. [^3H]L-citrulline was separated by DOWEX (ion-exchange resin DOWEX 50 W X 8-400, SIGMA) and the DOWEX was removed by spinning at 12,000 g for 10 min in the centrifuge. An 70 μL aliquot of the supernatant was added to 100 μL of scintillation fluid and the samples were counted in a liquid scintillation counter (1450 Microbeta Jet, Wallac). […] All assays were performed at least in duplicate.

The target of assay [2] is human inducible NOS (iNOS) (Homo sapiens, UniProt P35228). As to the kind of experiment: iNOS (Human) enzyme assay, radiometric conversion of [3H]L-arginine to [3H]L-citrulline. In kind it is biochemical. As to conditions: recombinant human enzyme, 37° C., 45 min. The protocol:
as §1, §2

The target of assay [3] is human neuronal constitutive NOS (nNOS) (Homo sapiens, UniProt P29475). As to the kind of experiment: nNOS (Human) enzyme assay, radiometric conversion of [3H]L-arginine to [3H]L-citrulline. As to conditions: for Ratio e/n: human eNOS / human nNOS. In kind it is biochemical.
Chain of human neuronal constitutive NOS (nNOS) (P29475 whole entry): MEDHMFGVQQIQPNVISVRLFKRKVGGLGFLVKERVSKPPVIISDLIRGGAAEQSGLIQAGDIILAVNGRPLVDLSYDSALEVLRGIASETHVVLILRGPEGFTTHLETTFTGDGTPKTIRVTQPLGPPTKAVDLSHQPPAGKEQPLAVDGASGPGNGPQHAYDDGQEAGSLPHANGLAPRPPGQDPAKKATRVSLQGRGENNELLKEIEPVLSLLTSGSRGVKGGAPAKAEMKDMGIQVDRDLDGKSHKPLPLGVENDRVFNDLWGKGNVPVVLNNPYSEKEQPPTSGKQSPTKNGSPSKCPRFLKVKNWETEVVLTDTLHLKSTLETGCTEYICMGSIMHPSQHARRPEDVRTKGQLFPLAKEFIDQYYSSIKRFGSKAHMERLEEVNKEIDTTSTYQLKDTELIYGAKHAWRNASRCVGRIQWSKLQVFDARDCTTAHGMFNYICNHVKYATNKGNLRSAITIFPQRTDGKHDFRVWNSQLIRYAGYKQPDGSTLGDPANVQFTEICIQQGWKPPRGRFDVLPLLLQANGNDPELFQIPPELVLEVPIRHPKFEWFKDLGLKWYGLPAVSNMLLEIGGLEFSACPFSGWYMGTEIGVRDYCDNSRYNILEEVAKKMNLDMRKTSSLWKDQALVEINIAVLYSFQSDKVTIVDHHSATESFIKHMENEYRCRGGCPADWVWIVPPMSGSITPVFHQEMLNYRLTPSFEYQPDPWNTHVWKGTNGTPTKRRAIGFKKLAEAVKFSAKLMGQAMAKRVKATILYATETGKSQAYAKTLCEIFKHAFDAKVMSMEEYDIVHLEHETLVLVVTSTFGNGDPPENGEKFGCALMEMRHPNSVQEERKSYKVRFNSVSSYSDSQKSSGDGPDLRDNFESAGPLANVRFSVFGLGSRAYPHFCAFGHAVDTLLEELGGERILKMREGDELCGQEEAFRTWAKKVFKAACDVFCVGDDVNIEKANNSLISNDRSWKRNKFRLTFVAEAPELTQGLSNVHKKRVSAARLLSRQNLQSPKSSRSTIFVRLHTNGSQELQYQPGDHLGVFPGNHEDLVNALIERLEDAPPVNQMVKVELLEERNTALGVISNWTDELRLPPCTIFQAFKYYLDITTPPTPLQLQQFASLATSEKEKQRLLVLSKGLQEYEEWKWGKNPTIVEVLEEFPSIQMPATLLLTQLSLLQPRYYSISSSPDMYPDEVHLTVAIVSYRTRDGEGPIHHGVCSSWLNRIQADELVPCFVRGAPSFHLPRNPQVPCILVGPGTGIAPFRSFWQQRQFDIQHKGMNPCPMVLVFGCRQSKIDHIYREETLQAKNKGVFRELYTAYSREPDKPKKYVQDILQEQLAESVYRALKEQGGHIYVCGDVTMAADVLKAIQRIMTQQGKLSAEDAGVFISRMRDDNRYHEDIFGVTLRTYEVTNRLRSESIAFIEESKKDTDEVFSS
Description: To measure enzyme inhibition, a 15 μL solution of a test substance was added to the enzyme assay solution, followed by a pre-incubation time of 15 min at RT. […] The total volume of the reaction mixture was 150 μL in every well. The reactions were carried out at 37° C. for 45 min. The reaction was stopped by adding 20 μL of ice-cold buffer containing 100 mM HEPES, 3 mM EGTA, 3 mM EDTA, pH=5.5. [^3H]L-citrulline was separated by DOWEX (ion-exchange resin DOWEX 50 W X 8-400, SIGMA) and the DOWEX was removed by spinning at 12,000 g for 10 min in the centrifuge. […] All assays were performed at least in duplicate. Standard deviations were 10% or less.
Assay [4] has as its system rats after L5/L6 spinal nerve ligation. As to the kind of experiment: Chung Spinal Nerve Ligation (SNL) model of neuropathic pain, thermal hyperalgesia. In kind it is in vivo, rat. As to conditions: one dose 10 or 60 mg/kg i.p. The protocol:
The efficacy of compound 107 for the treatment of neuropathic pain was assessed using standard animal models predictive of anti-hyperalgesic and anti-allodynic activity induced by a variety of methods.
The experimental designs for the Chung Spinal Nerve Ligation SNL Model assay for neuropathic pain are depicted in FIG. 1. Nerve ligation injury was performed according to the method described by Kim and Chung (Kim and Chung, Pain 50:355-363, 1992). This technique produces signs of neuropathic dysesthesias, including tactile allodynia, thermal hyperalgesia, and guarding of the affected paw. Rats were anesthetized with halothane and the vertebrae over the L4 to S2 region were exposed. The L5 and L6 spinal nerves were exposed, carefully isolated, and tightly ligated with 4-0 silk suture distal to the DRG. After ensuring homeostatic stability, the wounds were sutured, and the animals allowed to recover in individual cages. Sham-operated rats were prepared in an identical fashion except that the L5/L6 spinal nerves were not ligated. […] After a period of recovery following the surgical intervention, rats show enhanced sensitivity to painful and normally non-painful stimuli.

In assay [5] the test system is cardiogenic shock patients. The settings on record: randomized trial of 30 patients; reduced from 67%; cited from earlier work.
The test system of assay [6] is migraine patients. The settings on record: single i.v. administration; cited from earlier work.
Assay [7] has as its system patients with persistent shock. As to conditions: up to 30 days, 11 patients with persistent shock; cited from earlier work.
In assay [8] the test system is migraine patients. As to conditions: open pilot study; cited from earlier work.
[9] abbreviates: recombinant human enzyme, 37° C., 45 min, read-out: Human nNOS.

Consider `CN1CCCC(n2ccc3cc(NC(=N)c4ccco4)ccc32)CC1` (single isomer, unassigned) [(+)−55], for which the figures for the pIC50 in assay [1] and in assay [2] were 4.61 and 5.00, respectively.
For `CN1CCCC1CCn1ccc2cc(NC(=N)c3cccs3)ccc21` (single isomer, unassigned) [(+)−57] the same measures were 5.47 and 4.66.
For the compound `CN1CCCC(n2ccc3cc(NC(=N)c4ccco4)ccc32)CC1` (single isomer, unassigned) [(−)−55], the figures for the pIC50 in assay [1] and in assay [2] were 4.55 and 4.34, respectively.
For `CN1CCCC1CCn1ccc2cc(NC(=N)c3cccs3)ccc21` (single isomer, unassigned) [(−)−57], in that order: 5.72 and 5.77.
With `CCN(CC)CCn1c(Cc2ccc(OC(F)(F)F)cc2)cc2cc(NC(=N)c3cccs3)ccc21` [Compound 11, N-(1-(2-(Diethylamino)ethyl)-2-(4-(trifluoromethoxy)benzyl)-1H-indol-5-yl)thiophene-2-carboximidamide], the IC50 in assay [1] (Human eNOS (μM)) came out at 4.5 µM. Moreover, the figures for the pIC50 in assay [2] and in assay [3] (setting [9]) were 4.77 and 6.10, respectively. In addition, the Ratio e/n in assay [3] is 5.62.
For the compound `CN1CCCC1CCn1c(Cc2ccc(OC(F)(F)F)cc2)cc2cc(NC(=N)c3cccs3)ccc21` (stereo not drawn) [Compound 14, N-(1-(2-(1-methylpyrrolidin-2-yl)ethyl)-2-(4-(trifluoromethoxy)benzyl)-1H-indol-5-yl)thiophene-2-carboximidamide], the pIC50 in assay [1] was 5.82; in assay [2] it was 4.03; in assay [3] (setting [9]) it was 6.51. Moreover, the Ratio e/n in assay [3] is 4.90.
With `CN1CCCC1CCn1c(-c2ccc([N+](=O)[O-])cc2)cc2cc(NC(=N)c3cccs3)ccc21` (stereo not drawn) [Compound 21, N-(1-(2-(1-methylpyrrolidin-2-yl)ethyl)-2-(4-nitrophenyl)-1H-indol-5-yl)thiophene-2-carboximidamide], the values for the pIC50 in assay [1], in assay [2] and in assay [3] (setting [9]) were 4.88, 4.28 and 5.89, respectively.
Take `CN1CCCC(n2ccc3cc(NC(=N)c4ccco4)ccc32)CC1` (stereo not drawn) [Compound 54, N-(1-(1-methylazepan-4-yl)-1H-indol-5-yl)furan-2-carboximidamide]: the pIC50 is 4.41 in assay [1] and 4.31 in assay [2].
Consider `CN1CCCC(n2ccc3cc(NC(=N)c4cccs4)ccc32)CC1` (stereo not drawn) [Compound 58, N-(1-(1-methylazepan-4-yl)-1H-indol-5-yl)thiophene-2-carboximidamide], for which the pIC50 is 4.94 in assay [1], 5.12 in assay [2] and 6.92 in assay [3] (setting [9]). Also, the Ratio e/n in assay [3] turned out to be 93.49.
In the case of `CN1CCCC1CCn1ccc2cc(NC(=N)N[N+](=O)[O-])ccc21` (stereo not drawn) [Compound 59, 1-(1-(2-(1-methylpyrrolidin-2-yl)ethyl)-1H-indol-5-yl)-3-nitroguanidine], the pIC50 in assay [1] was 5.06; in assay [3] (setting [9]), 5.84. For the same compound, the “Human iNOS (μM)” value in assay [2] is “Not Active”. The Ratio e/n in assay [3] is given as 6.00.
In the case of `N=C(Nc1ccc2c(ccn2C2CN3CCC2CC3)c1)c1cccs1` (stereo not drawn) [Compound 71, N-(1-(Quinuclidin-3-yl)-1H-indol-5-yl)thiophene-2-carboximidamide], the pIC50 in assay [1] is 4.92; in assay [2] it was 4.54; in assay [3] (setting [9]) it was 6.44. In addition, the Ratio e/n in assay [3] is 32.79.
For `CN1C2CCC1CC(n1ccc3cc(NC(=N)c4cccs4)ccc31)C2` (stereo not drawn) [Compound 86, N-(1-(8-methyl-8-azabicyclo[3.2.1]octan-3-yl)-1H-indol-5-yl)thiophene-2-carboximidamide] the same measures were 4.72, 4.96, 6.12 and 24.70.
For `CN1CC=C(c2c[nH]c3cc(NC(=N)c4cccs4)ccc23)CC1` [Compound 107, N-[3-(1-methyl-1,2,3,6-tetrahydro-pyridin-4-yl)-1H-indol-6-yl]-thiophene-2-carboxamidine], the pIC50 in assay [1] is 4.54; in assay [2], 4.92; in assay [3] (setting [9]), 5.96. In assay [4], the “antihyperalgesic effect (reversal of thermal hyperalgesia)” value was “clear antihyperalgesic effect”. The Ratio e/n in assay [3] worked out at 26.36.
For the compound `CN1CCC(c2c[nH]c3cc(NC(=N)c4cccs4)ccc23)CC1` [Compound 108, N-[3-(1-methyl-piperidin-4-yl)-1H-indol-6-yl]-thiophene-2-carboxamidine], the pIC50 in assay [1] was 4.77; in assay [2], 5.03; in assay [3] (setting [9]) it was 6.15. In addition, in assay [3], the Ratio e/n is 23.94.
In the case of `N=C(Nc1ccc2c(C3CN4CCC3CC4)c[nH]c2c1)c1cccs1` (stereo not drawn) [Compound 112, N-(3-(quinuclidin-3-yl)-1H-indol-6-yl)thiophene-2-carboximidamide], the pIC50 in assay [1] was 4.50; in assay [2], 6.40; in assay [3], 5.95. The Ratio e/n in assay [3] turned out to be 27.78.
In the case of `CCNC1CCC(c2c[nH]c3cc(NC(=N)c4cccs4)ccc23)CC1` (stereo not drawn) [Compound 129], the results for the pIC50 in assay [1], in assay [2] and in assay [3] (setting [9]) were 4.83, 5.38 and 6.59, respectively. Also, the Ratio e/n in assay [3] was found to be 57.08.
For `CCNC1CC=C(c2c[nH]c3cc(NC(=N)c4cccs4)ccc23)CC1` (stereo not drawn) [Compound 132, N-(3-(4-(Ethylamino)cyclohex-1-enyl)-1H-indol-6-yl)thiophene-2-carboximidamide] the same measures were 4.76, 5.71, 6.14 and 23.83.
As for `CCCN[C@H]1CC[C@@H](c2c[nH]c3cc(NC(=N)c4cccs4)ccc32)CC1` [Compound 137, N-(3-((1s,4s)-4-(propylamino)cyclohexyl)-1H-indol-6-yl)thiophene-2-carboximidamide], the pIC50 was 5.26 in assay [1], 5.08 in assay [2] and 6.70 in assay [3] (setting [9]). In addition, the Ratio e/n in assay [3] is recorded as 27.02.
`COC(=O)[C@@H](N)CCCNC(=N)N[N+](=O)[O-]` [L-NAME]: the patient mortality in assay [5] is reported as 27%.
Consider `CN=C(N)NCCC[C@H](N)C(=O)O.Cl` [L-NMMA, L-N^G methylarginine hydrochloride], for which, in assay [6], the response rate is reported as 67%. Moreover, the survival rate in assay [7] was 72%.
Consider `C/C1=C2/[N-][C@H]([C@H](CC(N)=O)[C@@]2(C)CCC(=O)NC[C@@H](C)OP(=O)([O-])O[C@H]2[C@@H](O)[C@@H](n3cnc4cc(C)c(C)cc43)O[C@@H]2CO)[C@]2(C)N=C(/C(C)=C3N=C(/C=C4N=C1[C@@H](CCC(N)=O)C\4(C)C)[C@@H](CCC(N)=O)[C@]\3(C)CC(N)=O)[C@@H](CCC(N)=O)[C@]2(C)CC(N)=O.[Co+3].[OH-]` [hydroxycobalamin], for which the “patients with a 50% reduction in the frequency of migraine attack” value in assay [8] is 53%.
